IC50 data for 50 compounds are collected here from patent publication US10052330B2, “Substituted pyrido[3,4-b]pyrazines as Syk inhibitors” (HUTCHISON MEDIPHARMA LIMITED, priority 2011, dated 2018).

Structures are written as SMILES. pIC50: −log10 of the molar value.

In assay [1] the test system is RBL-2H3 cells. The assay is described as follows: IgE-induced Beta-hexosaminidase secretion in RBL-2H3 cells. The assay is classed as cell-based. Particulars: Rattus norvegicus, RBL-2H3, RBL-2H3 cells sensitized with SPE-7, stimulated with DNP-BSA; upper bound of each range is 'less than'; read-out: IC50, IgE-induced Beta-hexosaminidase secretion.
For assay [2], the target named is Syk kinase (Homo sapiens, UniProt P43405). The assay is described as follows: Syk kinase enzymatic assay (Kit-Tyr 2 Peptide). Conditions: 8 concentrations, 1 μM down to 0.0003 μM; upper bound of each range is 'less than'; read-out: IC50: Enzymatic Activity (Syk kinase). The assay is classed as biochemical.

Consider `Fc1cc(-c2cc3nccnc3c(NC[C@@H]3CNCCC3(F)F)n2)ccc1N1CCOCC1` [Compound 368, (S)—N-((4,4-difluoropiperidin-3-yl)methyl)-7-(3-fluoro-4-morpholinophenyl) pyrido[4,3-b]pyrazin-5-amine], for which the pIC50 in assay [1] and in assay [2] was 7.00 to 9.00 throughout.

Turning to `O=C(CO)N1CCC(c2ccc(-c3cc4nccnc4c(NC[C@@H]4CNCCO4)n3)cc2)CC1` [Compound 511], the pIC50 in assay [1] and in assay [2] was 7.00 to 9.00 throughout.

Consider `O=C(c1ccoc1)N1CCN(c2ccc(-c3cc4nccnc4c(NCC4CNCCO4)n3)cc2)CC1` (stereo not shown) [Compound 421], for which the pIC50 in assay [1] and in assay [2] was 7.00 to 9.00 throughout.

For `CN1CCN(c2ccc(-c3cc4nccnc4c(N4CCC(C(N)=O)C4)n3)cc2)CC1` (stereo not shown) [Compound 128], the pIC50 in assay [1] is 6.00 to 7.00; in assay [2], 7.00 to 9.00.

As to `COc1ccc(-c2cc3nccnc3c(NCC3CCCNC3)n2)cc1OC` (stereo not shown) [Compound 26], the pIC50 is 6.00 to 7.00 in assay [1] and 7.00 to 9.00 in assay [2].

Take `c1cnc2c(NC[C@@H]3CCCNC3)nc(-c3ccc(N4CCOCC4)nc3)cc2n1` [Compound 89]: the negative-log IC50 (pIC50) in assay [1] and in assay [2] was 6.00 to 7.00 in each case.

Take `CC(C)S(=O)(=O)N1CCN(c2ccc(-c3cc4nccnc4c(NC[C@@H]4CNCCO4)n3)cc2)CC1` [Compound 401]: the pIC50 in assay [1] is 6.00 to 7.00; in assay [2] it was 7.00 to 9.00.

As for `Cc1cc(-c2cc3nccnc3c(N3CCC4(CCCNC4)C3)n2)ccc1N1CCOCC1` (stereo not shown) [Compound 110], the pIC50 in assay [1] and in assay [2] was 7.00 to 9.00 throughout.

`CC(=O)N1CCN(c2ccc(-c3cc4nccnc4c(NCC4CNCCC4(F)F)n3)cc2F)CC1` (stereo not shown) [Compound 318]: the pIC50 in assay [1] and in assay [2] was 7.00 to 9.00 each time.

In the case of `COc1cc(OC)cc(-c2cc3nccnc3c(NCC3CCCNC3)n2)c1` (stereo not shown) [Compound 15], the negative logarithm of the IC50 (pIC50) in assay [1] and in assay [2] was 6.00 to 7.00 throughout.

Turning to `CCS(=O)(=O)N1CCO[C@H](CNc2nc(-c3ccc(N4CCOCC4)cc3)cc3nccnc23)C1` [Compound 346], the pIC50 in assay [1] and in assay [2] was 7.00 to 9.00 in each case.

As to `FC1(F)CCNCC1CNc1nc(-c2ccc(N3CCOCC3)nc2)cc2nccnc12` (stereo not shown) [Compound 292], the negative logarithm of the IC50 (pIC50) in assay [1] and in assay [2] was 7.00 to 9.00 each time.

As to `CNS(=O)(=O)N1CCC(c2ccc(-c3cc4nccnc4c(NC[C@@H]4CNCCO4)n3)cc2)CC1` [Compound 498], the pIC50 in assay [1] and in assay [2] was 7.00 to 9.00 throughout.

As to `O=S(=O)(C1CC1)N1CCN(c2ccc(-c3cc4nccnc4c(NC[C@@H]4CNCCO4)n3)cc2)CC1` [Compound 400, (S)-7-(4-(4-(cyclopropylsulfonyl)piperazin-1-yl)phenyl)-N-(morpholin-2-ylmethyl)pyrido[4,3-b]pyrazin-5-amine], the negative-log IC50 (pIC50) in assay [1] and in assay [2] was 7.00 to 9.00 throughout.

With `CCN1CCN(c2ccc(-c3cc4nccnc4c(NCC4CNCCO4)n3)cc2)CC1` (stereo not shown) [Compound 215], the pIC50 in assay [1] and in assay [2] was 7.00 to 9.00 in each case.

Consider `CC(C)Oc1ccc(-c2cc3nccnc3c(NC[C@H]3CCCNC3)n2)cc1F` [Compound 86], for which the pIC50 is 6.00 to 7.00 in assay [1] and 7.00 to 9.00 in assay [2].

As for `Nc1ccc(-c2cc3nccnc3c(NCC3CCCNC3)n2)cc1` (stereo not shown) [Compound 74], the pIC50 in assay [1] was 6.00 to 7.00; in assay [2], 7.00 to 9.00.

As for `O=C([C@H]1CCCO1)N1CCN(c2ccc(-c3cc4nccnc4c(NC[C@@H]4CNCCO4)n3)cc2)CC1` [Compound 416], the negative-log IC50 (pIC50) in assay [1] and in assay [2] was 7.00 to 9.00 each time.

As for `Cc1ccc(-c2cc3nccnc3c(NC[C@H]3CCCNC3)n2)cn1` [Compound 69], the pIC50 in assay [1] and in assay [2] was 6.00 to 7.00 throughout.

Consider `CC(=O)N1CCN(c2ccc(-c3cc4nccnc4c(NC[C@H]4CNCCC4(F)F)n3)cc2)CC1` [Compound 385, (R)-1-(4-(4-(5-((4,4-difluoropiperidin-3-yl)methylamino)pyrido[4,3-b]pyrazin-7-yl)phenyl)piperazin-1-yl)ethanone], for which the pIC50 in assay [1] and in assay [2] was 7.00 to 9.00 each time.

For `Cc1ccc(-c2cc3nccnc3c(NC[C@H]3CCCNC3)n2)cc1` [Compound 40], the results for the pIC50 in assay [1] and in assay [2] were 6.00 to 7.00 and 7.00 to 9.00, respectively.

`CN1CCN(c2ccc(-c3cc4nccnc4c(NCC4CNCCC4(F)F)n3)cc2)CC1` (stereo not shown) [Compound 293]: the values for the pIC50 in assay [1] and in assay [2] were 6.00 to 7.00 and 7.00 to 9.00, respectively.

Turning to `O=C(C1CC1(F)F)N1CCN(c2ccc(-c3cc4nccnc4c(NC[C@@H]4CNCCO4)n3)cc2)CC1` (stereo partly shown) [Compound 439], the negative-log IC50 (pIC50) in assay [1] and in assay [2] was 7.00 to 9.00 in each case.

As for `c1cnc2c(NC[C@H]3CCCNC3)nc(-c3ccc(N4CCOCC4)nc3)cc2n1` [Compound 87], the pIC50 in assay [1] was 6.00 to 7.00; in assay [2] it was 7.00 to 9.00.

As for `CN(C)c1ccc(-c2cc3nccnc3c(NCCS(N)(=O)=O)n2)cc1` [Compound 166], the pIC50 in assay [1] and in assay [2] was 6.00 to 7.00 in each case.

Turning to `c1cnc2c(NCc3cc[nH]n3)nc(-c3ccc(N4CCOCC4)cc3)cc2n1` [Compound 162], the pIC50 in assay [1] and in assay [2] was 6.00 to 7.00 in each case.

`Clc1cccc(-c2cc3nccnc3c(NCC3CCCNC3)n2)c1` (stereo not shown) [Compound 24]: the pIC50 in assay [1] and in assay [2] was 6.00 to 7.00 each time.

As to `FC1(F)CCNCC1CNc1nc(-c2cnn(C3CCOCC3)c2)cc2nccnc12` (stereo not shown) [Compound 314], the pIC50 in assay [1] and in assay [2] was 7.00 to 9.00 in each case.

For `CCC(=O)N1CCN(c2ccc(-c3cc4nccnc4c(NC[C@@H]4CNCCO4)n3)cc2)CC1` [Compound 267], the pIC50 in assay [1] and in assay [2] was 7.00 to 9.00 in each case.

For `CC(F)(F)C(=O)N1CCN(c2ccc(-c3cc4nccnc4c(NC[C@@H]4CNCCO4)n3)cc2)CC1` [Compound 438], the pIC50 in assay [1] and in assay [2] was 7.00 to 9.00 in each case.

Regarding `CCn1cc(-c2cc3nccnc3c(NCC3CNCCC3(F)F)n2)cn1` (stereo not shown) [Compound 311], the pIC50 in assay [1] and in assay [2] was 7.00 to 9.00 throughout.

As for `FC1(F)CCNC[C@H]1CNc1nc(-c2cnn(C3CCOCC3)c2)cc2nccnc12` [Compound 398, (S)—N-((4,4-difluoropiperidin-3-yl)methyl)-7-(1-(tetrahydro-2H-pyran-4-yl)-1H-pyrazol-4-yl)pyrido[4,3-b]pyrazin-5-amine], the pIC50 in assay [1] and in assay [2] was 7.00 to 9.00 each time.

`CN1CCC(c2ccc(-c3cc4nccnc4c(NC[C@@H]4CN(S(C)(=O)=O)CCO4)n3)cc2)CC1` [Compound 460]: the pIC50 in assay [1] and in assay [2] was 7.00 to 9.00 each time.

Consider `F[C@@]1(CNc2nc(-c3ccc(N4CCOCC4)cc3)cc3nccnc23)CCCNC1` [Compound 376, (S)—N-((3-fluoropiperidin-3-yl)methyl)-7-(4-morpholinophenyl)pyrido[4,3-b]pyrazin-5-amine], for which the negative logarithm of the IC50 (pIC50) in assay [1] and in assay [2] was 7.00 to 9.00 throughout.

Take `CS(=O)(=O)c1ccc(-c2cc3nccnc3c(NCC3CNCCC3(F)F)n2)cc1` (stereo not shown) [Compound 310]: the pIC50 in assay [1] and in assay [2] was 7.00 to 9.00 in each case.

For the compound `NC(=O)CCNc1nc(-c2ccc(N3CCCC3)cc2)cc2nccnc12` [Compound 177], the values for the negative logarithm of the IC50 (pIC50) in assay [1] and in assay [2] were 7.00 to 9.00 and 6.00 to 7.00, respectively.

Regarding `CS(=O)(=O)N1CCC(c2ccc(-c3cc4nccnc4c(NCC4CNC(=O)CO4)n3)cc2)CC1` (stereo not shown) [Compound 501], the negative-log IC50 (pIC50) in assay [1] and in assay [2] was 7.00 to 9.00 in each case.

Turning to `CS(=O)(=O)N1CCN(c2ccc(-c3cc4nccnc4c(N4CC[C@H](CO)C4)n3)cc2)CC1` [Compound 362], the pIC50 in assay [1] and in assay [2] was 7.00 to 9.00 in each case.

Regarding `O=C(C1CC1)N1CCN(c2ccc(-c3cc4nccnc4c(NC[C@@H]4CNCCO4)n3)cc2)CC1` [Compound 266], the negative-log IC50 (pIC50) in assay [1] and in assay [2] was 7.00 to 9.00 in each case.

Turning to `NC(=O)NC[C@H]1CCN(c2nc(-c3ccc(N4CCOCC4)cc3)cc3nccnc23)C1` [Compound 151], the pIC50 in assay [1] and in assay [2] was 6.00 to 7.00 in each case.

Turning to `O=C(C(F)F)N1CCN(c2ccc(-c3cc4nccnc4c(NC[C@@H]4CNCCO4)n3)cc2F)CC1` [Compound 427], the pIC50 in assay [1] and in assay [2] was 7.00 to 9.00 in each case.

Take `CN(C)c1ccc(-c2cc3nccnc3c(NC[C@H]3CCCNC3)n2)cc1F` [Compound 142]: the negative-log IC50 (pIC50) in assay [1] and in assay [2] was 7.00 to 9.00 throughout.

For the compound `CCS(=O)(=O)N1CCN(c2ccc(-c3cc4nccnc4c(NCC4CNCCC4(F)F)n3)cn2)CC1` (stereo not shown) [Compound 443], the pIC50 in assay [1] and in assay [2] was 7.00 to 9.00 each time.

In the case of `CN(C)C(=O)C1CCN(c2ccc(-c3cc4nccnc4c(NC[C@@H]4CNCCO4)n3)cc2)CC1` [Compound 270], the pIC50 in assay [1] is 6.00 to 7.00; in assay [2], 7.00 to 9.00.

Take `CN1CCN(c2ccc(-c3cc4nccnc4c(NC[C@@H]4CCCNC4)n3)cc2)CC1` [Compound 122]: the results for the pIC50 in assay [1] and in assay [2] were 6.00 to 7.00 and 7.00 to 9.00, respectively.

For `Cc1cc(-c2cc3nccnc3c(NCC3CNCCCO3)n2)ccc1N1CCOCC1` (stereo not shown) [Compound 221], the negative logarithm of the IC50 (pIC50) in assay [1] and in assay [2] was 7.00 to 9.00 each time.

In the case of `FC1(CNc2nc(-c3ccc(N4CCOCC4)cc3)cc3nccnc23)CCCNC1` (single isomer, unassigned) [Compound 377], the negative-log IC50 (pIC50) in assay [1] and in assay [2] was 7.00 to 9.00 each time.

Take `CC(C)c1ccc(-c2cc3nccnc3c(NCC3CCCNC3)n2)cc1` (stereo not shown) [Compound 46]: the pIC50 in assay [1] was 6.00 to 7.00; in assay [2], 7.00 to 9.00.

Regarding `NS(=O)(=O)CCNc1nc(-c2ccc(N3CCOCC3)cc2)cc2nccnc12` [Compound 167], the pIC50 in assay [1] and in assay [2] was 6.00 to 7.00 each time.

Regarding `Cc1cc(-c2cc3nccnc3c(NC[C@H]3CNCCC3(F)F)n2)ccc1N1CCOCC1` [Compound 371, (R)—N-((4,4-difluoropiperidin-3-yl)methyl)-7-(3-methyl-4-morpholinophenyl)pyrido[4,3-b]pyrazin-5-amine], the negative-log IC50 (pIC50) in assay [1] and in assay [2] was 7.00 to 9.00 throughout.

One may read the pIC50 as the negative decadic logarithm of the IC50, by convention in mol/L.
